We go through 15 compounds from ChEMBL document CHEMBL1944622, “Constituents of Dalbergia sissoo Roxb. leaves with osteogenic activity” (Bioorg Med Chem Lett, 2012).

Calls of active or inactive are those of the source. The rule behind the calls is not given here.

Data set [1] has as its system Calvarial osteoblast. In words: Osteogenic activity in rat primary calvarial osteoblasts assessed as induction of ALP activity at 1 pM to 1 uM after 10 days by colorimetry. The format is functional, cell-based.
Data set [2] concerns Calvarial osteoblast. In words: Osteogenic activity in rat primary calvarial osteoblasts assessed as induction of ALP activity at 1 pM after 10 days by colorimetry. The format is functional, cell-based.
Data set [3] has as its system Rattus norvegicus. Kind of data set: Osteogenic activity in rat assessed as increase in ALP expression in calvaria administered as sc qd for 3 days by qPCR analysis. The format is functional, organism-based.
Data set [4] concerns Rattus norvegicus. In words: Osteogenic activity in rat assessed as increase in ALP expression in calvaria at 10 mg/kg, sc qd for 3 days by qPCR analysis. The format is functional, organism-based. Also on record: dose 10 mg/kg.
For data set [5], the system named is Ishikawa. In words: Antiestrogenic activity in ER expressing human Ishikawa cells assessed as inhibition of ALP activity at 1 pM to 1 uM. The format is functional, cell-based.
Data set [6] has as its system Calvarial osteoblast. Kind of data set: Osteogenic activity in rat primary calvarial osteoblasts assessed as induction of ALP activity at 1 pM to 1 uM after 10 days by colorimetry in presence of anti-estrogen ICI-182780. The format is functional, cell-based.
The subject of data set [7] is Calvarial osteoblast. Kind of data set: Induction of rat calvarial osteoblast mineralization assessed as increase in formation of mineralized calcium nodules at 1 pM after 21 days by alizarin red-S staining-based assay. The format is functional, cell-based.
Data set [8] is described as follows: Upregulation of BMP-2 in rat primary calvarial osteoblast cells after 48 hrs by qPCR analysis relative to control. The format is functional, cell-based.
Data set [9] deals with Ishikawa. Kind of data set: Estrogenic activity in ER expressing human Ishikawa cells assessed as induction of ALP activity at 1 pM to 1 uM. The format is functional, cell-based.
Data set [10] deals with Rattus norvegicus. Kind of data set: Osteogenic activity in rat assessed as increase in collagen-1 expression in calvaria at 5 mg/kg, sc qd for 3 days by qPCR analysis. The format is functional, organism-based. Also on record: dose 5 mg/kg.
Data set [11] can be described thus: Toxicity in rat calvarial osteoblast cells at 1 pM to 1 uM after 48 hrs by MTT assay. The format is cell-based.
Data set [12] has as its system Rattus norvegicus. Kind of data set: Osteogenic activity in rat assessed as increase in ALP expression in calvaria at 1 mg/kg, sc qd for 3 days by qPCR analysis. The format is functional, organism-based. Set-up: dose 1 mg/kg.
In data set [13] the test system is Rattus norvegicus. Kind of data set: Osteogenic activity in rat assessed as increase in collagen-1 expression in calvaria at 1 mg/kg, sc qd for 3 days by qPCR analysis. The format is functional, organism-based. Set-up: dose 1 mg/kg.
In data set [14] the test system is Rattus norvegicus. Kind of data set: Osteogenic activity in rat assessed as increase in collagen-1 expression in calvaria at 10 mg/kg, sc qd for 3 days by qPCR analysis. The format is functional, organism-based. Set-up: dose 10 mg/kg.
In data set [15] the test system is Ishikawa. In words: Estrogenic activity in ER expressing human Ishikawa cells assessed as induction of ALP activity at 1 pM to 1 uM in presence of 17beta-E2. The format is functional, cell-based.
The subject of data set [16] is Rattus norvegicus. In words: Osteogenic activity in rat assessed as increase in ALP expression in calvaria at 5 mg/kg, sc qd for 3 days by qPCR analysis. Also on record: dose 5 mg/kg. The format is functional, organism-based.
Data set [17] relates to Calvarial osteoblast. In words: Induction of rat calvarial osteoblast mineralization assessed as increase in formation of mineralized calcium nodules at 10 nM after 21 days by alizarin red-S staining-based assay. The format is functional, cell-based.
The subject of data set [18] is Calvarial osteoblast. Kind of data set: Osteogenic activity in rat calvarial osteoblasts assessed as induction of ALP activity at 10 nM after 48 hrs by spectrophotometry in presence of anti-estrogen ICI-182780. The format is functional, cell-based.
In data set [19] the test system is Ishikawa. In words: Estrogenic activity in ER expressing human Ishikawa cells assessed as induction of ALP activity at 10 nM. The format is functional, cell-based.
The subject of data set [20] is Ishikawa. Kind of data set: Estrogenic activity in ER expressing human Ishikawa cells assessed as induction of ALP activity at 100 pM relative to control. The format is functional.

For `O=c1c(O[C@@H]2O[C@H](CO)[C@@H](O)[C@H](O)[C@H]2O)c(-c2ccc(O)c(O)c2)oc2cc(O)cc(O)c12`, the outcome in the data set with Calvarial osteoblast [1] was inactive.

With `COc1ccc(-c2coc3cc(O[C@@H]4O[C@H](CO[C@@H]5OC[C@](O)(CO)[C@H]5O)[C@@H](O)[C@H](O)[C@H]4O)cc(O)c3c2=O)cc1`, the result in the data set with Calvarial osteoblast [1] was inactive.

Take `COc1cc(OC)c(-c2coc3cc(O[C@@H]4O[C@H](CO[C@@H]5OC[C@](O)(CO)[C@H]5O)[C@@H](O)[C@H](O)[C@H]4O)c(OC)c(O)c3c2=O)cc1OC`: the result with Calvarial osteoblast [2], with Calvarial osteoblast [6], in the data set on Calvarial osteoblast [7], in the data set with Calvarial osteoblast [1], in the data set on Rattus norvegicus [12] and in the data set with Rattus norvegicus [13] was Active. The result in the data set on Rattus norvegicus [16] was Active. For the same compound, the Activity result with Rattus norvegicus [3] is “Dose-dependent effect”; in data set [11] it was “Non-toxic”. The outcome in the data set on Rattus norvegicus [4], in the data set with Ishikawa [5], in the data set on Ishikawa [9], in the data set on Rattus norvegicus [10] and in the data set with Rattus norvegicus [14] was inactive. The fold change (FC) in [8] turned out to be 15. In the data set with Ishikawa [15], the inhibition result was “inactive”.

Take `COc1ccc(-c2coc3cc(O)cc(O)c3c2=O)cc1` [BIOCHANIN]: the result in the data set with Calvarial osteoblast [17], in the data set on Calvarial osteoblast [1] and with Ishikawa [19] was Active. The outcome in the data set with Calvarial osteoblast [18] was inactive. Besides, the Activity entry in data set [11] is reported as “Non-toxic”.

With `COc1cc(OC)c(-c2coc3cc(O[C@@H]4O[C@H](CO)[C@@H](O)[C@H](O)[C@H]4O)c(OC)c(O)c3c2=O)cc1OC`, in the data set on Calvarial osteoblast [1], the result was inactive.

For `C[C@]12CC[C@@H]3c4ccc(O)cc4CC[C@H]3[C@@H]1CC[C@@H]2O` [ESTRADIOL], in the data set on Ishikawa [20], the “fold change (FC)” value is 1.5.

With `COc1cc([C@H]2OC[C@H]3[C@@H]2CO[C@@H]3c2cc(OC)c(O[C@@H]3O[C@H](CO)[C@@H](O)[C@H](O)[C@H]3O)c(OC)c2)cc(OC)c1O`, in the data set on Calvarial osteoblast [1], the result was inactive.

As for `O=c1c(-c2ccc(O)cc2)coc2cc(O)cc(O)c12` [GENISTEIN], the outcome in the data set on Ishikawa [5] and in the data set on Ishikawa [9] was inactive. The result with Calvarial osteoblast [17], in the data set on Calvarial osteoblast [6] and with Calvarial osteoblast [1] was Active. Further, in data set [8], the fold change (FC) turned out to be 5. Also, the Activity entry in data set [11] was “Non-toxic”. In addition, in the data set on Ishikawa [15], the inhibition entry is “inactive”.

As for `COc1cc(OC)c(-c2coc3cc(O)c(OC)c(O)c3c2=O)cc1OC`, the result in the data set on Calvarial osteoblast [1] was inactive.

As to `O=c1c(O[C@@H]2O[C@H](CO)[C@@H](O)[C@H](O)[C@H]2O)c(-c2ccc(O)cc2)oc2cc(O)cc(O)c12`, in the data set on Calvarial osteoblast [1], the outcome was inactive.

Regarding `C[C@@H]1O[C@@H](OC[C@H]2O[C@@H](Oc3c(-c4ccc(O)c(O)c4)oc4cc(O)cc(O)c4c3=O)[C@H](O)[C@@H](O)[C@@H]2O)[C@H](O)[C@H](O)[C@H]1O`, the outcome in the data set on Calvarial osteoblast [1] was inactive.

On to `C[C@@H]1O[C@@H](OC[C@H]2O[C@@H](Oc3c(-c4ccc(O)cc4)oc4cc(O)cc(O)c4c3=O)[C@H](O)[C@@H](O)[C@@H]2O)[C@H](O)[C@H](O)[C@H]1O`, for which the result in the data set with Calvarial osteoblast [1] was inactive.

On to `COc1ccc(-c2coc3cc(O[C@@H]4O[C@H](CO[C@@H]5OC[C@](O)(CO[C@@H]6OC[C@](O)(CO)[C@H]6O)[C@H]5O)[C@@H](O)[C@H](O)[C@H]4O)cc(O)c3c2=O)cc1`, for which the outcome with Calvarial osteoblast [1] was inactive.

`COC(=O)C/C(=C\c1ccc(O)c(O)c1)C(=O)O`: in the data set with Calvarial osteoblast [1], the result was inactive.

As for `COc1ccc(-c2coc3cc(O)cc(O)c3c2=O)cc1O` [PRATENSEIN], the outcome with Ishikawa [5] and in the data set with Ishikawa [9] was inactive. The result in the data set with Calvarial osteoblast [17], with Calvarial osteoblast [6] and with Calvarial osteoblast [1] was Active. Further, in data set [11], the Activity result is recorded as “Non-toxic”. The inhibition result with Ishikawa [15] is “inactive”.
